For assay [1], the target named is PI3Kγ (p110γ) Recombinant Human Protein (Homo sapiens (Human), UniProt P48736). The assay can be described thus: PI3K-γ scintillation proximity assay. It is filed as biochemical. To be noted: 20 μM PIP2, 2 μM ATP, 13 nM PI3Kγ, 120 min, room temperature. From the text: Example B. PI3K-γ Scintillation Proximity Assay
[γ-^33P]ATP (10 mCi/mL) and Wheat Germ Agglutinin (WGA) YSi SPA Scintillation Beads was purchased from PerkinElmer (Waltham, Mass.). Lipid kinase substrate, D-myo-Phosphatidylinositol 4,5-bisphosphate (PtdIns(4,5)P2)D (+)-sn-1,2-di-O-octanoylglyceryl, 3-O-phospho linked (PIP2), CAS 204858-53-7, was purchased from Echelon Biosciences (Salt Lake City, Utah). PI3Kγ (p110γ) Recombinant Human Protein was purchased from Life technology (Grand Island, N.Y.). ATP, MgCl2, DTT, EDTA, MOPS and CHAPS were purchased from SigmaAldrich (St. Louis, Mo.).
(§1) The kinase reaction was conducted in polystyrene 384-well Greiner Bio-one white plate from Thermo Fisher Scientific in a final volume of 25 μL. Inhibitors were first diluted serially in DMSO and added to the plate wells before the addition of other reaction components. The final concentration of DMSO in the assay was 2%. The PI3Kγ assay was carried out at room temperature in 20 mM MOPS, pH 6.7, 10 mM MgCl2, 5 mM DTT and CHAPS 0.03%. Reactions were initiated by the addition of ATP, the final reaction mixture consisted of 20 μM PIP2, 2 μM ATP, 0.5 μCi [γ-^33P] ATP, 13 nM PI3Kγ. Reactions were incubated for 120 min and terminated by the addition of 40 μL SPA beads suspended in quench buffer: 163 mM potassium phosphate pH 7.8, 20% glycerol, 25 mM EDTA. The final concentration of SPA beads is 1.0 mg/mL. After the plate sealing, plates were shaken overnight at room temperature and centrifuged at 1500 rpm for 10 min, the radioactivity of the product was determined by scintillation counting on Topcount (Perkin-Elmer). IC50 determination was performed by fitting the curve of percent of the solvent control activity versus the log of the inhibitor concentration using the GraphPad Prism 6.0 software.
In general terms: In a scintillation proximity assay essentially only radioactivity close to the scintillant gives light.

Assay [2] deals with PI3Kδ (p110δ/p85α) Recombinant Human Protein (Homo sapiens (Human), UniProt O00329). The assay can be described thus: PI3Kδ scintillation proximity assay. It is filed as biochemical. To be noted: 20 μM PIP2, 2 μM ATP, 3.4 nM PI3Kδ, 120 min, room temperature; read-out: PI3Kδ IC50. The procedure: PI3Kδ Scintillation Proximity Assay
[γ-^33P]ATP (10 mCi/mL) and Wheat Germ Agglutinin (WGA) YSi SPA Scintillation Beads was purchased from PerkinElmer (Waltham, Mass.). […] PI3Kδ (p110δ/p85α) Recombinant Human Protein was purchased from Eurofins (St Charles, Mo.). ATP, MgCl2, DTT, EDTA, MOPS and CHAPS were purchased from SigmaAldrich (St. Louis, Mo.).
as §1, with “PI3Kδ” for “PI3Kγ”, “ATP, 13 nM PI3Kγ. Reactions were incubated for 120 min and terminated by the addition of 40 μL SPA beads suspended in quench buffer: 163 mM potassium phosphate pH 7.8, 20% glycerol, 25 mM EDTA.” left out, “(PerkinElmer).” for “(Perkin-Elmer).”

Counter-ions that a name gives are not always drawn.

PI3Kγ (p110γ) Recombinant Human Protein, sequence (P48736 whole entry): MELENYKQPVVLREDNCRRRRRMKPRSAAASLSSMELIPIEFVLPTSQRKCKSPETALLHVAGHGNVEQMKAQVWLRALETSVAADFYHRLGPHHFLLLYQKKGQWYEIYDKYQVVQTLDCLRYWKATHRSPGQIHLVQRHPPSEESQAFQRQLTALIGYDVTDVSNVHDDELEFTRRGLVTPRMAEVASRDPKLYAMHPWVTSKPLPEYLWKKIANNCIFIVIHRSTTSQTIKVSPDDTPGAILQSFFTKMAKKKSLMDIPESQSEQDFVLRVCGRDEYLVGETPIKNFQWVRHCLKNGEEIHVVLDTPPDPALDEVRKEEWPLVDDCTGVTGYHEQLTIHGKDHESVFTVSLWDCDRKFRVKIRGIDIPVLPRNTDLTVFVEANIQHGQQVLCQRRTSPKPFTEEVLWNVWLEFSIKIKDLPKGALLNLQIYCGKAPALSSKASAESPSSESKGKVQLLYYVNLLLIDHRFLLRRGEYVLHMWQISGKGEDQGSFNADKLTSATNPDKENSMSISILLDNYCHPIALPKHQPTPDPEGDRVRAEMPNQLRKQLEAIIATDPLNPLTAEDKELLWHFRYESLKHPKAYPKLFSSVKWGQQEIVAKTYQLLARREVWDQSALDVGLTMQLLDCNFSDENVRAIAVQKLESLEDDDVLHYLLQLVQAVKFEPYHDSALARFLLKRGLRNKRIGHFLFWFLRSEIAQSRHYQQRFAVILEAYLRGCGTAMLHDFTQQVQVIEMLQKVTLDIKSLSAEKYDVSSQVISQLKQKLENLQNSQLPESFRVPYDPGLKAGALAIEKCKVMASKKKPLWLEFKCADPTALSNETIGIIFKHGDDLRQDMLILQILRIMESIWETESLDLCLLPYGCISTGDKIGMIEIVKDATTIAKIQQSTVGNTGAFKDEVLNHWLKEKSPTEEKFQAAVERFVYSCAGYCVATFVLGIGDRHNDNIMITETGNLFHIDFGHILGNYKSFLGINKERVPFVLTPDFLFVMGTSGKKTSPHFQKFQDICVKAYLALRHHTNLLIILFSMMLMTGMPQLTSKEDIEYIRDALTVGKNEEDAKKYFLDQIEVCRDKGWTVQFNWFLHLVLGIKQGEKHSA
PI3Kδ (p110δ/p85α) Recombinant Human Protein, sequence (O00329 whole entry): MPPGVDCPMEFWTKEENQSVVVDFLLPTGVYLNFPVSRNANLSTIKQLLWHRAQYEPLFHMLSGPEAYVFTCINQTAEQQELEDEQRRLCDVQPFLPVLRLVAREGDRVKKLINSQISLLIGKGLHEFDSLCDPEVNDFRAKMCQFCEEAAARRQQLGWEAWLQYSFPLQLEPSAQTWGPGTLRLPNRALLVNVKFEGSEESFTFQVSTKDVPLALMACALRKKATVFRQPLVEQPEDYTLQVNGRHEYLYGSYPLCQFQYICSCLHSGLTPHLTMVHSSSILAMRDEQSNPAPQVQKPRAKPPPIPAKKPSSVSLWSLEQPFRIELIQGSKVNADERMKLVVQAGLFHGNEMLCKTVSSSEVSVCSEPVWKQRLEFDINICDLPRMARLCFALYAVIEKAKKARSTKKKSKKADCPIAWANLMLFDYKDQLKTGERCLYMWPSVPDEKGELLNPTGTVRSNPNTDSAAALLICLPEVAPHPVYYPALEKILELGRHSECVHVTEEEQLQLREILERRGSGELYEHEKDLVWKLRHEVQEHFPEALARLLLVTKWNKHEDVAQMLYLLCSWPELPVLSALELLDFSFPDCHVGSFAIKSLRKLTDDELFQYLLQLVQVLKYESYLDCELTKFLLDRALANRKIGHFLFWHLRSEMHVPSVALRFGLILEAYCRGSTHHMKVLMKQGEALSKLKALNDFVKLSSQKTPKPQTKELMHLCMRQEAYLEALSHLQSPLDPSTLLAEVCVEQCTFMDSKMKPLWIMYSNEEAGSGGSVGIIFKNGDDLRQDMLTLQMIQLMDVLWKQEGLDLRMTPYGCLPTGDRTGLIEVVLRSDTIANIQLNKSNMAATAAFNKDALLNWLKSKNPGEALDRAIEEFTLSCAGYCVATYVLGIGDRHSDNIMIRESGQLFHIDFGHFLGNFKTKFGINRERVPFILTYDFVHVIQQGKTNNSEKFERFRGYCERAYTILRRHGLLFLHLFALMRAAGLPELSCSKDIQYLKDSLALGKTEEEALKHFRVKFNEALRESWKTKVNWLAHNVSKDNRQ
PI3Kδ (p110δ/p85α) Recombinant Human Protein, sequence (P27986 whole entry partner): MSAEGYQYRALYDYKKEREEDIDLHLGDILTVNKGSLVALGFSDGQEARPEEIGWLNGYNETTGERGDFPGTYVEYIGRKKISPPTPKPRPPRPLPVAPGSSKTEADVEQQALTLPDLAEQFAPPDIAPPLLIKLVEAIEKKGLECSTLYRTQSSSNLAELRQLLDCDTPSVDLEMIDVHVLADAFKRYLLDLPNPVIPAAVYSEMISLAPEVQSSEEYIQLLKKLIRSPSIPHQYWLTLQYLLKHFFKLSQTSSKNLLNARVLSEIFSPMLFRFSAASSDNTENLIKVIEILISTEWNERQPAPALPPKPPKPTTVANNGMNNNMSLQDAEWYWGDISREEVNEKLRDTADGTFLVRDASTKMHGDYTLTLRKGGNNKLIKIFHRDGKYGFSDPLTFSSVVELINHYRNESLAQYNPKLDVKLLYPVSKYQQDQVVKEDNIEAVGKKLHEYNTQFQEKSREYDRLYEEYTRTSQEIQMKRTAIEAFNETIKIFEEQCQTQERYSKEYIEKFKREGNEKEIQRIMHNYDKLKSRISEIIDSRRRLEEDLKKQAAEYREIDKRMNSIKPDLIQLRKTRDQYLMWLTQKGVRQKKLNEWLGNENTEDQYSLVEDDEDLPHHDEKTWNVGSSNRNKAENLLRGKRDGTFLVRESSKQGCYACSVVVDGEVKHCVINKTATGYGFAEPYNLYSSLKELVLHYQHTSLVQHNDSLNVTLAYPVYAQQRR

In general, IC50 refers to the midpoint of a concentration-inhibition curve. Turning to `CC(O)(c1cc(-c2cnc3c(N)nc(C(F)(F)F)cn23)c2ccn(S(=O)(=O)c3ccccc3)c2c1)C(F)(F)F` (racemic) [Example 224, 2-(4-(8-Amino-6-(trifluoromethyl)imidazo[1,2-a]pyrazin-3-yl)-1-(phenylsulfonyl)-1H-indol-6-yl)-1,1,1-trifluoropropan-2-ol], the IC50 lay in the range of 0.1 to 0.5 µM in assay [1] and 0.5 to 2 µM in assay [2].

Take `[2H]C([2H])([2H])c1ccc(C(O)(C(C)(C)O)C(F)(F)F)cc1-c1cnc2c(N)nc(C(F)(F)F)cn12` (racemic) [Example 235, 2-(3-(8-Amino-6-(trifluoromethyl)imidazo[1,2-a]pyrazin-3-yl)-4-(methyl-d3)phenyl)-1,1,1-trifluoro-3-methylbutane-2,3-diol trifluoroacetate salt]: the IC50 in assay [1] was under 0.1 µM; in assay [2] it was 0.1 to 0.5 µM.

Regarding `Cc1ccc(C(C)(O)C(F)(F)C(F)(F)F)cc1-c1cnc2c(N)nc(C(F)(F)F)cn12` (single isomer, unassigned) [Example 59, 2-(3-(8-Amino-6-(trifluoromethyl)imidazo[1,2-a]pyrazin-3-yl)-4-methylphenyl)-3,3,4,4,4-pentafluorobutan-2-ol], the IC50 in assay [1] was under 0.1 µM; in assay [2], 0.5 to 2 µM.

With `Cc1ccc(C(C)(O)C(F)(F)F)cc1-c1cnc2c(N)nc(C(=O)NCC(C)(C)O)cn12` (single isomer, unassigned) [Example 62, 8-amino-N-(2-hydroxy-2-methylpropyl)-3-(2-methyl-5-(1,1,1-trifluoro-2-hydroxypropan-2-yl)phenyl)imidazo[1,2-a]pyrazine-6-carboxamide], the values for the concentration for half-maximal inhibition (IC50) in assay [1] and in assay [2] were under 0.1 µM and 0.1 to 0.5 µM, respectively.

Regarding `[2H]C([2H])([2H])n1nccc1-c1cn2c(-c3cc(C(O)(CO)C(F)(F)F)ccc3C)cnc2c(N)n1` (single isomer, unassigned) [Example 67, 2-(3-(8-Amino-6-(1-(methyl-d3)-1H-pyrazol-5-yl)imidazo[1,2-a]pyrazin-3-yl)-4-methylphenyl)-3,3,3-trifluoropropane-1,2-diol trifluoroacetate salt], the concentration for half-maximal inhibition (IC50) in assay [1] was under 0.1 µM; in assay [2], 0.1 to 0.5 µM.

As for `CCOC(=O)C1CC1c1cn2c(-c3cc(C(C)(O)C(F)F)ccc3C)cnc2c(N)n1` (single isomer, unassigned) [Example 74, Ethyl 2-(8-amino-3-(5-(1,1-difluoro-2-hydroxypropan-2-yl)-2-methylphenyl)imidazo[1,2-a]pyrazin-6-yl)cyclopropane-1-carboxylate trifluoroacetate salt], the IC50 in assay [1] and in assay [2] was 0.5 to 2 µM throughout.

As for `Cc1ccc(C(C)(O)C(F)F)cc1-c1cnc2c(N)nc(C3CC3CO)cn12` (single isomer, unassigned) [Example 80, 2-(3-(8-Amino-6-(2-(hydroxymethyl)cyclopropyl)imidazo[1,2-a]pyrazin-3-yl)-4-methylphenyl)-1,1-difluoropropan-2-ol], the half-inhibitory concentration (IC50) is under 0.1 µM in assay [1] and 0.5 to 2 µM in assay [2].

Consider `Cc1ccc(C(C)(O)C(F)(F)F)cc1-c1cnc2c(N)ncnn12` (stereo not drawn) [Example 3, 2-(3-(4-Aminoimidazo[2,1-f][1,2,4]triazin-7-yl)-4-methylphenyl)-1,1,1-trifluoropropan-2-ol], for which the IC50 in assay [1] is under 0.1 µM; in assay [2], 0.5 to 2 µM.

With `Cc1cn2c(-c3cc(C(C)(O)C(F)(F)F)ccc3C)cnc2c(N)n1` (stereo not drawn) [Example 7, 2-(3-(8-Amino-6-methylimidazo[1,2-a]pyrazin-3-yl)-4-methylphenyl)-1,1,1-trifluoropropan-2-ol], the values for the 50% inhibitory concentration (IC50) in assay [1] and in assay [2] were under 0.1 µM and 0.1 to 0.5 µM, respectively.

Consider `Cc1ccc(C(O)(CCNC2CCOCC2)C(F)(F)F)cc1-c1cnc2c(N)nc(C(F)(F)F)cn12` (stereo not drawn) [Example 17, 2-(3-(8-Amino-6-(trifluoromethyl)imidazo[1,2-a]pyrazin-3-yl)-4-methylphenyl)-1,1,1-trifluoro-4-((tetrahydro-2H-pyran-4-yl)amino)butan-2-ol bis(2,2,2-trifluoroacetate)], for which the values for the IC50 in assay [1] and in assay [2] were under 0.1 µM and 0.5 to 2 µM, respectively.

Regarding `Cc1ccc(C(C)(O)C(F)F)cc1-c1cnc2c(N)nc(-c3cncnc3)cn12` (stereo not drawn) [Example 32, 2-(3-(8-Amino-6-(pyrimidin-5-yl)imidazo[1,2-a]pyrazin-3-yl)-4-methylpheny1)-1,1-difluoropropan-2-ol], the concentration for half-maximal inhibition (IC50) in assay [1] is under 0.1 µM; in assay [2], 0.5 to 2 µM.

As to `Cc1cc(F)c(C(C)(O)C(F)(F)F)cc1-c1cnc2c(N)nc(C(F)(F)F)cn12` (stereo not drawn) [Example 53, 2-(5-(8-Amino-6-(trifluoromethyl)imidazo[1,2-a]pyrazin-3-yl)-2-fluoro-4-methylphenyl)-1,1,1-trifluoropropan-2-ol], the concentration for half-maximal inhibition (IC50) in assay [1] was under 0.1 µM.

Turning to `Cc1cnc(C(C)(O)C(F)(F)F)cc1-c1cnc2c(N)nc(C(F)(F)F)cn12` (stereo not drawn) [Example 54, 2-(4-(8-Amino-6-(trifluoromethyl)imidazo[1,2-a]pyrazin-3-yl)-5-methylpyridin-2-yl)-1,1,1-trifluoropropan-2-ol], the concentration for half-maximal inhibition (IC50) in assay [1] is under 0.1 µM.

On to `CC(O)(c1cc(-c2cnc3c(N)nc(C(F)(F)F)cn23)ccc1F)C(F)(F)F` (stereo not drawn) [Example 55, 2-(5-(8-Amino-6-(trifluoromethyl)imidazo[1,2-a]pyrazin-3-yl)-2-fluorophenyl)-1,1,1-trifluoropropan-2-ol], for which the IC50 in assay [1] was under 0.1 µM.

As to `CC(O)(c1cccc(-c2cnc3c(N)nc(C(F)(F)F)cn23)c1)C(F)(F)F` (stereo not drawn) [Example 56, 2-(3-(8-Amino-6-(trifluoromethyl)imidazo[1,2-a]pyrazin-3-yl)phenyl)-1,1,1-trifluoropropan-2-ol], in assay [1], the concentration for half-maximal inhibition (IC50) is under 0.1 µM.

In the case of `CC(O)(c1ccc(F)c(-c2cnc3c(N)nc(C(F)(F)F)cn23)c1)C(F)(F)F` (stereo not drawn) [Example 57, 2-(3-(8-Amino-6-(trifluoromethyl)imidazo[1,2-a]pyrazin-3-yl)-4-fluorophenyl)-1,1,1-trifluoropropan-2-ol], the IC50 in assay [1] was under 0.1 µM.

For the compound `Cc1ncc(C(C)(O)C(F)(F)F)cc1-c1cnc2c(N)nc(C(F)(F)F)cn12` (stereo not drawn) [Example 58, 2-(5-(8-Amino-6-(trifluoromethyl)imidazo[1,2-a]pyrazin-3-yl)-6-methylpyridin-3-yl)-1,1,1-trifluoropropan-2-ol], the IC50 in assay [1] lay within 0.1 to 0.5 µM.

`Cc1ccc(C(C)(O)C(F)F)cc1-c1cnc2c(N)nc(N3CCC(C#N)CC3)cn12` (stereo not drawn) [Example 64, 1-(8-Amino-3-(5-(1,1-difluoro-2-hydroxypropan-2-yl)-2-methylphenyl)imidazo[1,2-a]pyrazin-6-yl)piperidine-4-carbonitrile]: the half-maximal inhibitory concentration (IC50) is under 0.1 µM in assay [1] and 0.5 to 2 µM in assay [2].

As to `Cc1ccc(C(C)(O)C(F)(F)F)cc1-c1cnc2c(N)nc(N3CCC(O)CC3)cn12` (stereo not drawn) [Example 65, 1-(8-Amino-3-(2-methyl-5-(1,1,1-trifluoro-2-hydroxypropan-2-yl)phenyl)imidazo[1,2-a]pyrazin-6-yl)piperidin-4-ol], the half-inhibitory concentration (IC50) in assay [1] was under 0.1 µM; in assay [2], 0.1 to 0.5 µM.

In the case of `Cc1ccc(C(C)(O)C(F)F)cc1-c1cnc2c(N)nc(C3CC3C(=O)N3CCN(C)CC3)cn12` (stereo not drawn) [Example 77, (2-(8-Amino-3-(5-(1,1-difluoro-2-hydroxypropan-2-yl)-2-methylphenyl)imidazo[1,2-a]pyrazin-6-yl)cyclopropyl)(4-methylpiperazin-1-yl)methanone trifluoroacetate salt], the half-inhibitory concentration (IC50) in assay [1] was under 0.1 µM; in assay [2], 0.1 to 0.5 µM.

Turning to `Cc1ccc(C(C)(O)C(F)(F)F)cc1-c1cnc2c(N)nc(CC(=O)N(C)C)cn12` (stereo not drawn) [Example 169, 2-(8-amino-3-(2-methyl-5-(1,1,1-trifluoro-2-hydroxypropan-2-yl)phenyl)imidazo[1,2-a]pyrazin-6-yl)-N,N-dimethylacetamide trifluoroacetate salt], the IC50 in assay [1] lay in the range of 0.1 to 0.5 µM; in assay [2] it was 0.5 to 2 µM.

The record behind these values is US10738057B2, “Tertiary alcohols as PI3K-γ inhibitors” (Incyte Corporation, priority 2017, dated 2020).
